Experiments:
[1] = wn = mass fraction of the nth substance listed; conditions: 100 kPa, Liquid, transient hot wire
[2] = 101.33 kPa, Liquid, transient hot wire

CCCCCCCCCC(=O)OC [methyl decanoate] + CCCO
[1]
Conditions | thermal conductivity [W/m/K]
287.88 K, w1 = 0.2022 | 0.1527
287.9 K, w1 = 0.4008 | 0.1495
287.9 K, w1 = 0.5998 | 0.1481
287.98 K, w1 = 0.7993 | 0.1462
297.73 K, w1 = 0.2022 | 0.1501
297.73 K, w1 = 0.7993 | 0.1442
297.77 K, w1 = 0.4008 | 0.1473
297.95 K, w1 = 0.5998 | 0.1454
307.71 K, w1 = 0.2022 | 0.1479
307.75 K, w1 = 0.4008 | 0.1453
307.77 K, w1 = 0.7993 | 0.142
307.81 K, w1 = 0.5998 | 0.1435
317.64 K, w1 = 0.2022 | 0.1459
317.69 K, w1 = 0.4008 | 0.1426
317.74 K, w1 = 0.7993 | 0.1397
317.81 K, w1 = 0.5998 | 0.1414
327.55 K, w1 = 0.2022 | 0.1433
327.56 K, w1 = 0.5998 | 0.1394
327.59 K, w1 = 0.4008 | 0.1408
327.67 K, w1 = 0.7993 | 0.1374
337.58 K, w1 = 0.2022 | 0.1412
337.62 K, w1 = 0.5998 | 0.1371
337.68 K, w1 = 0.7993 | 0.1351
337.72 K, w1 = 0.4008 | 0.138
347.56 K, w1 = 0.2022 | 0.1382
347.64 K, w1 = 0.4008 | 0.136
347.65 K, w1 = 0.5998 | 0.1348
347.65 K, w1 = 0.7993 | 0.1328
357.48 K, w1 = 0.2022 | 0.1362
357.48 K, w1 = 0.7993 | 0.1299
357.51 K, w1 = 0.5998 | 0.1328
357.57 K, w1 = 0.4008 | 0.1341

CCCCCCCCCC(=O)OC [methyl decanoate] + CCCCO
[1]
Conditions | thermal conductivity [W/m/K]
287.9 K, w1 = 0.2001 | 0.1497
287.95 K, w1 = 0.8003 | 0.146
287.98 K, w1 = 0.599 | 0.1468
288.35 K, w1 = 0.4002 | 0.1476
297.66 K, w1 = 0.4002 | 0.1458
297.69 K, w1 = 0.2001 | 0.1473
297.81 K, w1 = 0.8003 | 0.1436
298 K, w1 = 0.599 | 0.1441
307.7 K, w1 = 0.2001 | 0.145
307.74 K, w1 = 0.4002 | 0.1436
307.81 K, w1 = 0.599 | 0.1427
307.86 K, w1 = 0.8003 | 0.1412
317.55 K, w1 = 0.2001 | 0.1431
317.7 K, w1 = 0.8003 | 0.1395
317.74 K, w1 = 0.4002 | 0.1418
317.81 K, w1 = 0.599 | 0.1403
327.62 K, w1 = 0.2001 | 0.1398
327.73 K, w1 = 0.4002 | 0.1388
327.78 K, w1 = 0.599 | 0.1382
327.78 K, w1 = 0.8003 | 0.137
337.59 K, w1 = 0.2001 | 0.1379
337.59 K, w1 = 0.4002 | 0.1372
337.66 K, w1 = 0.599 | 0.136
337.78 K, w1 = 0.8003 | 0.1346
347.49 K, w1 = 0.2001 | 0.1363
347.58 K, w1 = 0.599 | 0.1339
347.73 K, w1 = 0.4002 | 0.135
347.8 K, w1 = 0.8003 | 0.1318
357.56 K, w1 = 0.2001 | 0.1337
357.68 K, w1 = 0.4002 | 0.1325
357.71 K, w1 = 0.599 | 0.1317
357.76 K, w1 = 0.8003 | 0.13

O [water]
[2]
Conditions | thermal conductivity [W/m/K]
299.55 K | 0.613
309.44 K | 0.6207
319.56 K | 0.6399
339.38 K | 0.653
349.82 K | 0.6704

CCO [ethanol]
[2]
Conditions | thermal conductivity [W/m/K]
276.51 K | 0.1719
287.55 K | 0.1677
297.25 K | 0.1645
307.16 K | 0.1617

CCCCCCCCCC(=O)OC [methyl decanoate] + CCCCCO
[1]
Conditions | thermal conductivity [W/m/K]
287.96 K, w1 = 0.1941 | 0.1495
287.96 K, w1 = 0.4008 | 0.1482
287.97 K, w1 = 0.6035 | 0.1467
288 K, w1 = 0.8002 | 0.1456
297.72 K, w1 = 0.1941 | 0.1477
297.73 K, w1 = 0.4008 | 0.1463
297.76 K, w1 = 0.6035 | 0.1453
297.85 K, w1 = 0.8002 | 0.1433
307.69 K, w1 = 0.8002 | 0.1414
307.72 K, w1 = 0.6035 | 0.1432
307.74 K, w1 = 0.4008 | 0.144
307.77 K, w1 = 0.1941 | 0.1451
317.73 K, w1 = 0.4008 | 0.142
317.74 K, w1 = 0.8002 | 0.1396
317.81 K, w1 = 0.6035 | 0.1406
317.86 K, w1 = 0.1941 | 0.1433
327.58 K, w1 = 0.4008 | 0.1405
327.66 K, w1 = 0.6035 | 0.1386
327.75 K, w1 = 0.8002 | 0.1366
327.82 K, w1 = 0.1941 | 0.1408
337.54 K, w1 = 0.8002 | 0.1347
337.6 K, w1 = 0.1941 | 0.1391
337.61 K, w1 = 0.6035 | 0.1361
337.76 K, w1 = 0.4008 | 0.1373
347.58 K, w1 = 0.4008 | 0.1356
347.61 K, w1 = 0.8002 | 0.1315
347.79 K, w1 = 0.1941 | 0.1367
347.85 K, w1 = 0.6035 | 0.1336
357.66 K, w1 = 0.4008 | 0.1333
357.7 K, w1 = 0.6035 | 0.132
357.75 K, w1 = 0.8002 | 0.1299
357.76 K, w1 = 0.1941 | 0.1345

Reference: the NIST ThermoML archive (doi:10.1016/j.fluid.2019.112263)
